As usually defined, the IC50 is the concentration at which inhibition is half-maximal. The term logP denotes a log measure of how a compound divides between an organic and an aqueous phase. In general, half-life refers to the time needed for the level to fall by half in the phase considered.

Structures are written as SMILES.

Results on five compounds are retold here after ChEMBL document CHEMBL2029216, “Synthesis and evaluation of [18F]Fluorobutyl ethacrynic amide: a potential PET tracer for studying glutathione transferase” (Bioorg Med Chem Lett, 2012).

One data set relates to A549. The data set is described as follows: Cytotoxicity against human A549 cells. In kind it is functional, cell-based.
In a further data set the test system is MCF7. Description: Cytotoxicity against human MCF7 cells. It counts as functional, cell-based.
In a further data set the test system is IMR-90. Description: Cytotoxicity against human IMR90 cells. In kind it is cell-based.
The test system of a further data set is Urinary bladder. The data set is described as follows: Drug uptake in mouse bladder after 5 mins. In kind it is ADME, tissue-based. The note with it: in vivo.
Data set [1] is described as follows: Drug uptake in TAA-induced cholangiocarcinoma model of rat tumor expressing GSTalpha assessed as cold spot using [18F]FDG at 486 uCi/0.23 mL, iv after 5 days by PET analysis. It counts as ADME, organism-based, Neoplasm. The settings on record: in vivo, 120 h.
A further data set concerns Kidney. Description: Drug uptake in mouse kidney after 5 mins. It counts as ADME, tissue-based. The note with it: in vivo.
Data set [2] has as its system Liver. The data set is described as follows: Drug uptake in Sprague-Dawley rat liver expressing GSTalpha assessed as homogeneous distribution of [18F]FBuEA-GSH10 complex at 717 uCi/mL, iv after 120 mins by PET analysis. In kind it is ADME, organism-based. The settings on record: in vivo, 2 h.
Data set [3] is described as follows: Octanol-water partition coefficient, Log P of the compound at 12.6 uCi by Shake-flask method. In kind it is physicochemical.
A short description of data set [4]: Drug uptake in 23 weeks TAA treated rat TAA-induced cholangiocarcinoma model tumor expressing GSTalpha assessed as cold spot using [18F]FDG at 801 uCi/0.23 mL, iv after 5 to 10 mins by PET analysis. The note with it: in vivo. It counts as ADME, organism-based, Neoplasm.
Data set [5] is described as follows: Drug uptake in 18 weeks TAA treated rat TAA-induced cholangiocarcinoma model tumor expressing GSTalpha assessed as hot spot using [18F]FDG at 486 uCi/0.23 mL, iv after 30 mins by PET analysis. The settings on record: in vivo, 0.5 h. It counts as ADME, organism-based, Neoplasm.
The subject of data set [6] is Liver. The data set is described as follows: Drug uptake in TAA-induced cholangiocarcinoma model of rat liver expressing GSTalpha assessed as heterogeneous distribution of [18F]FBuEA-GSH10 complex at 569 uCi/0.6 mL, iv after 120 mins by PET analysis. It counts as ADME, organism-based. The settings on record: in vivo, 2 h.
Data set [7] has as its system Liver. The data set is described as follows: Drug uptake in mouse liver after 5 mins. It counts as ADME, tissue-based. The settings on record: in vivo.
Data set [8] is described as follows: Half life in rat plasma at 6.3 MBq, iv by HPLC analysis. In kind it is ADME, organism-based.
The subject of the next data set is Nucleic Acid. Description: Ratio of drug level in tumor to liver in rat TAA-induced cholangiocarcinoma model. It counts as ADME, tissue-based. The note with it: in vivo.

For the compound `C=C(CC)C(=O)c1ccc(OCC(=O)NCCCC)c(Cl)c1Cl`, the IC50 amounted to 13 µM in the data set on A549 and 4 µM in the data set on MCF7.
For the compound `C=C(CC)C(=O)c1ccc(OCC(=O)NCCCCF)c(Cl)c1Cl`, the half-inhibitory concentration (IC50) with A549 came to 8 µM; with MCF7, 3 µM; with IMR-90 it was 18 µM.
On to `C=C(CC)C(=O)c1ccc(OCC(=O)NCCCC[18F])c(Cl)c1Cl`, for which the Drug uptake entry (in the data set on Urinary bladder; in data set [1]; with Kidney; in the data set on Liver [2]; in [4]; in data set [5]) was “Active” in each case. The Drug uptake result in the data set on Liver [6] and with Liver [7] was “Active” throughout. Also, the log partition coefficient (logP) in [3] is 1.47.
As to `C=C(CC)C(=O)c1ccc(OCC(=O)O)c(Cl)c1Cl` [ETHACRYNIC ACID], in data set [8], the half-life was 30 min. Further, the IC50 with A549 was found to be 84 µM.
Consider `OC[C@H]1O[C@@H](O)[C@H]([18F])[C@@H](O)[C@@H]1O` [FLUDEOXYGLUCOSE-F18], for which the Ratio in the data set on Nucleic Acid is 1.6.
